Where only a bound is given, the exact number is not on record here.

In the case of `Cc1cc(C(=O)N2CCOCC2)ccc1N`, the melting point (commonly the temperature, or range, at which the solid turns liquid) lay in the range of 101 to 103 °C.

In turn, `N#Cc1ccnc(Cl)c1[N+](=O)[O-]` returned a melting point of 74 to 76 °C.

Consider `Cc1cc(C)c(-c2csc(N)n2)cc1C`, for which the melting point fell in the range of 252 to 254 °C.

The compound `NC(=O)C1CCCN1C(=O)NC(=O)CCl` (stereo unspecified) gave a melting point of 126 to 128 °C.

As for `Cc1nn(-c2ncccn2)c(N)c1Br`, the melting point is 159 to 161 °C.

Regarding `COc1cc(OC)c2cc(CCCN)[nH]c2c1`, the melting point was in the range of 113 to 115 °C.

In turn, `Cc1nn(C)c2nc(Cl)c(C=O)cc12` returned a melting point of 182 to 184 °C.

The compound `CN(CC(=O)O)S(=O)(=O)c1ccc2c(c1)OCCO2` gave a melting point of 141 to 143 °C.

Consider `O=C(O)CCNS(=O)(=O)c1cccnc1Cl`, for which the melting point was 174 to 176 °C.

In turn, `O=C(O)c1cn(-c2ccccc2)nc1-c1ccccc1` gave a melting point of 202 to 204 °C.

The compound `NCCc1c[nH]c2cc(F)ccc12` gave a melting point of 74 to 76 °C.

Consider `C#CCOc1ccccc1C=O`, for which the melting point was in the range of 70 to 72 °C.

Regarding `C1CCc2nnc(C3CCCNC3)n2CC1` (stereo unspecified), the melting point fell in the range of 171 to 173 °C.

For `O=C(O)CCN1C(=O)CCC1=O`, the melting point lay within 131 to 133 °C.

On to `O=C(O)c1cc(S(=O)(=O)Cl)cc(Br)c1Cl`, for which the melting point is 160 to 162 °C.

Take `O=C(O)c1cc(Cl)c2cc(Cl)ccc2n1`: the melting point fell in the range of 194 to 196 °C.

Regarding `Cc1oc(N)c(C#N)c1C`, the melting point is 163 to 169 °C.

In the case of `N#Cc1cc2c(nc1Cl)CCC2`, the melting point was in the range of 126 to 128 °C.

Compound `O=C(O)C1CSCN1C(=O)c1ccc(Cl)cc1` (stereo unspecified) gave a melting point of 60 to 62 °C.

The compound `O=[N+]([O-])c1ccc(Cl)c(S(=O)(=O)Cl)c1` had a melting point of 85 to 87 °C.

In turn, `Cc1cccc(-c2nnc(S)o2)c1` registered a melting point of 157 to 161 °C.

Compound `Cc1ccc(S(=O)(=O)NCC2CCCO2)cc1C(=O)O` (stereo unspecified) yielded a melting point of 160 to 162 °C.

Compound `Cc1ccc(-c2n[nH]c(S)nc2=O)cc1` had a melting point of 225 to 227 °C.

`O=c1[nH]c2ccc(S(=O)(=O)Cl)cc2[nH]c1=O` had a melting point of 304 to 306 °C.

In the case of `Nc1nnc(Cc2ccc(F)cc2)s1`, the melting point was 170 to 172 °C.

`O=S(=O)(NC1CCCC1)c1ccc(Cl)nc1` had a melting point of 97 to 99 °C.

In turn, `O=C(O)C1CCN(S(=O)(=O)c2cccc(C(F)(F)F)c2)CC1` yielded a melting point of 135 to 136 °C.

`COc1ccc(-c2ccc(C#N)cc2)cc1` yielded a melting point of 102 to 104 °C.

The compound `CC(NC(=O)c1ccc(S(=O)(=O)N(C)C)cc1)C(=O)O` (stereo unspecified) returned a melting point of 180 to 182 °C.

The compound `O=C(O)CCn1c(=O)oc2cc(S(=O)(=O)N3CCCC3)ccc21` yielded a melting point of 190 to 192 °C.

With `O=C(Nc1ccccc1C(=O)O)c1cccc(Br)c1`, the melting point lay in the range of 189 to 191 °C.

`CC(C)Cn1nc(C(=O)O)c2ccccc2c1=O`: the melting point was in the range of 171 to 173 °C.

In turn, `Nc1ccc(-n2ccnn2)cc1` gave a melting point of 137 to 139 °C.

`COc1cccc(Cc2nnc(N)s2)c1`: the melting point is 104 to 106 °C.

Take `O=C1NC(=O)C2(CC(C(=O)O)C2)N1` (stereo unspecified): the melting point lay within 246 to 248 °C.

For the compound `O=C(O)c1cnn(-c2ccccn2)c1`, the melting point was 186 to 188 °C.

Compound `COCCCn1c(S)nc2ccccc2c1=O` yielded a melting point of 180 to 182 °C.

Regarding `NS(=O)(=O)c1ccc(-c2cccc(C(F)(F)F)c2)c(C(=O)O)c1`, the melting point is 181 to 183 °C.

Take `Nc1ccc(F)cc1-c1nc(CCOc2ccccc2)no1`: the melting point was in the range of 122 to 124 °C.

Turning to `Cc1nn(C(F)F)c(C)c1CC(=O)O`, the melting point fell in the range of 173 to 175 °C.

`NC(=O)NCC(F)(F)F` displayed a melting point of 110 to 112 °C.

Compound `CCCc1cc(C(=O)O)[nH]n1` showed a melting point of 169 to 171 °C.

Turning to `COC(=O)c1cc(OC)ccc1S(=O)(=O)Cl`, the melting point is 49 to 51 °C.

Regarding `Nc1ccc(-n2cncn2)c(F)c1`, the melting point lay within 126 to 128 °C.

With `N#Cc1nccnc1Oc1ccc(N)cc1`, the melting point lay in the range of 170 to 172 °C.

As to `O=C(O)Cc1csc(-c2ccc(Cl)cc2)n1`, the melting point was in the range of 255 to 257 °C.

Compound `O=C(O)c1nc(Cl)ccc1F` came in with a melting point of 149 to 151 °C.

With `Cc1ccc(C(=O)CCl)s1`, the melting point lay in the range of 45 to 47 °C.

Compound `COc1ccc(S(=O)(=O)Cl)c(OC)c1C(=O)O` yielded a melting point of 129 to 131 °C.

Compound `CC(C)CCNS(=O)(=O)c1ccc(Cl)nc1` had a melting point of 91 to 93 °C.

The compound `COc1ccc(NS(=O)(=O)c2ccc(N3CCCCC3)c(N)c2)cc1` yielded a melting point of 111 to 113 °C.

Compound `O=C1CCOc2c(Cl)cc(Cl)cc21` came in with a melting point of 86 to 88 °C.

`CC(C)NC(=O)c1ccc(Cl)c(N)c1` registered a melting point of 131 to 133 °C.

As for `COC(=O)NC(C)(C)C(=O)O`, the melting point lay in the range of 154 to 156 °C.

Regarding `N#CC1=C(N)Oc2ccccc2C1`, the melting point is 143 to 145 °C.

Take `COC(=O)C1CSCCC1=O` (stereo unspecified): the melting point lay in the range of 67 to 69 °C.

`CCOC(=O)C(O)c1ncc(Cl)n1C` (stereo unspecified) came in with a melting point of 85 to 87 °C.

The compound `OCc1cccc(OCC(F)(F)F)c1` returned a melting point of 30 to 32 °C.

`CC(C)(C)OC(=O)Nc1cc(N)ccc1F`: the melting point was 92 to 94 °C.

In the case of `O=C1CCOc2c1cc(Br)cc2[N+](=O)[O-]`, the melting point is 104 to 106 °C.

`N#CCC(=O)NCC1CCCO1` (stereo unspecified) showed a melting point of 90 to 94 °C.

Compound `Cc1cc(O)c(C(=O)O)cc1S(=O)(=O)Cl` returned a melting point of 162 to 164 °C.

On to `O=C(O)CNC(=O)c1cc(F)cc(F)c1`, for which the melting point was 154 to 156 °C.

With `Cc1sc2nc(S)n(C)c(=O)c2c1C`, the melting point was in the range of 288 to 290 °C.

As to `O=C(O)CSC1CCS(=O)(=O)C1` (stereo unspecified), the melting point is less than 17 °C.

`CC(=O)Nc1ncccc1N` displayed a melting point of 135 to 137 °C.

As to `CC(C)(C)OC(=O)N1CCC(OC(=O)c2cccc(N)c2)CC1`, the melting point lay within 124 to 126 °C.

With `COCc1cc(Cl)n2ncnc2n1`, the melting point was 104 to 106 °C.

`Cc1cccc(I)c1C(=O)O`: the melting point was in the range of 116 to 118 °C.

With `COC(=O)Cc1ccc(Oc2ccnc(C#N)c2)cc1`, the melting point lay within 120 to 122 °C.

In turn, `Cc1nccn1-c1ccc(Cl)nn1` yielded a melting point of 122 to 124 °C.

Compound `CS(=O)(=O)Cc1nc(Cl)c(Br)c(Cl)n1` showed a melting point of 174 to 176 °C.

Take `CCn1nc(C)c(C(C)=O)c1C`: the melting point lay within 30 to 32 °C.

In the case of `CC(NS(C)(=O)=O)C(=O)NN` (stereo unspecified), the melting point fell in the range of 117 to 119 °C.

Turning to `COCCNC(=O)c1ccc(Cl)nc1`, the melting point lay in the range of 112 to 114 °C.

`O=C(O)C1(c2ccc(F)cc2)CCOCC1` returned a melting point of 156 to 158 °C.

`O=[N+]([O-])c1cccc(OCC2CO2)c1` (stereo unspecified) yielded a melting point of 63 to 65 °C.

`CON(C)S(=O)(=O)c1ccc(Br)cc1` came in with a melting point of 81 to 83 °C.

In turn, `Cc1nc(C(=O)O)nn1-c1ccccc1` gave a melting point of 172 to 174 °C.

Compound `CN(C)C(=O)C1CNc2ccccc2O1` (stereo unspecified) returned a melting point of 90 to 92 °C.

Compound `COc1ccccc1NCCC(=O)O` registered a melting point of 84 to 86 °C.

`Cc1cc(C(=O)O)cc(S(=O)(=O)Cl)c1F` came in with a melting point of 193 to 195 °C.

As to `Cc1cnc(O)c([N+](=O)[O-])c1`, the melting point was 247 to 249 °C.

As to `c1n[nH]cc1C1CCNCC1`, the melting point was in the range of 149 to 151 °C.

Consider `Cc1cc(C)c2nc(N)sc2c1`, for which the melting point is 135 to 137 °C.

In the case of `c1ccc(-c2ncc[nH]2)nc1`, the melting point is 133 to 135 °C.

Values taken from a melting point compilation (Tetko et al.).
